Experimental data published in patent publication US20240252546A1, “NEURITE OUTGROWTH PROMOTION KIT AND USE THEREFOR” (KEIO UNIVERSITY, priority 2021, published 2024).

How the values were obtained:
[1] = tested on: nerve cells induced from neurospheres derived from 201B7 cells; experiment: Effect of RK-682 on neurite outgrowth (Experimental Example 10); type: cell-based, human; settings: 201B7 neurospheres; 20 μM RK-682, 24 hours, differentiated 14 days; vs control
Procedure: (§1) Neurospheres derived from 201B7 cells, which are cells of a human iPS cell line, were prepared in the same manner as in Experimental Example 1. Subsequently, the neurospheres were cultured for 24 hours in the presence of RK-682 at a final concentration of 20 μM. In addition, as a control, a group to which RK-682 was not added was also prepared.
(§2) Subsequently, each neurosphere was seeded on a 48-well chamber slide (IWAKI & CO., LTD.) coated with poly-L-ornithine/fibronectin, cultured for 14 days in a culture medium containing no growth factor at 37° C. in an environment of 95% air and 5% CO2, and differentiated into nerve cells.
Subsequently, each of the obtained nerve cells was fixed with 4% paraformaldehyde in 0.1 M PBS, and each of βIII-tubulin which is a nerve cell marker, and the Tau protein which is frequently distributed in axons, was immunostained, and the length of the neurite was measured.

phosphorylated p38 = experiment: Effect of RK-682 on phosphorylation of p38 (Experimental Example 9); type: cell-based, human; settings: 201B7 neurospheres; 20 μM RK-682, 24 hours; vs control
Procedure: as §1, with “prepared. Subsequently, each neurosphere was fixed with paraformaldehyde and subjected to immunostaining of each of the phosphorylated p38 and the phosphorylated CDC25B.” for “prepared.”

phosphorylated CDC25B [2] = experiment: Effect of RK-682 on phosphorylation of CDC25B (Experimental Example 9); type: cell-based, human; settings: 201B7 neurospheres; 20 μM RK-682, 24 hours; vs control
Procedure: as §1, with “prepared. Subsequently, each neurosphere was fixed with paraformaldehyde and subjected to immunostaining of each of the phosphorylated p38 and the phosphorylated CDC25B.” for “prepared.”

CDC25B = target: T1, CDC25B (Homo sapiens, UniProt P30305); settings: "it is said"; cited from earlier work
T1 sequence (P30305 1-580): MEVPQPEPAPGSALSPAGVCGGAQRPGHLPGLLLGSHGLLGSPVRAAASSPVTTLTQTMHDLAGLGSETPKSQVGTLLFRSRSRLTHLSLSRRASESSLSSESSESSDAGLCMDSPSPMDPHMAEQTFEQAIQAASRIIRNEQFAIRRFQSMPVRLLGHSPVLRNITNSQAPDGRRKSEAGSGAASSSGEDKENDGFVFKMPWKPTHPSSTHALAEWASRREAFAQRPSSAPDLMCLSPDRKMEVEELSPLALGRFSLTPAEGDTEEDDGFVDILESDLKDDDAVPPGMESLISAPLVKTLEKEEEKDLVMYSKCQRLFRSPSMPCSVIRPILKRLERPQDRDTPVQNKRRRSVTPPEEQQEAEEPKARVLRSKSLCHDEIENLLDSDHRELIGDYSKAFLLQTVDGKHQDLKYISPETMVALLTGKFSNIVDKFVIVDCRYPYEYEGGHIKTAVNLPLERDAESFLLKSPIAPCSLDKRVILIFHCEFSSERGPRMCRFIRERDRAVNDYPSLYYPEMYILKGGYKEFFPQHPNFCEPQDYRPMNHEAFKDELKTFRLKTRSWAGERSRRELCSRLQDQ

phosphorylated CDC25B [3] = experiment: Effect of addition of SB203580 on phosphorylation of CDC25B (Experimental Example 6); type: cell-based, human
Procedure: (§3) Neurospheres derived from 201B7 cells, which are cells of a human iPS cell line, were prepared in the same manner as in Experimental Example 1. Subsequently, each neurosphere was cultured for 24 hours in the presence of each of DAPT and Compound 34. DAPT and Compound 34 were used at the same concentrations as in Experimental Example 1. In addition, in this case, SB203580 (CAS number: 152121-47-6), which is a p38 inhibitor, was added to the culture medium at a final concentration of 20 μM. In addition, a group to which SB203580 had not been added was also prepared as a control.
Subsequently, each neurosphere was fixed with paraformaldehyde and subjected to immunostaining of phosphorylated CDC25B.
In FIG. 12(c), “DAPT” indicates it is the result obtained from the control into which the DAPT treatment has been carried out in the absence of SB203580, and “DAPT+SB203580” indicates it is the result obtained by carrying out the DAPT treatment in the presence of SB203580.

[4] = tested on: nerve cells induced from neurospheres derived from 201B7 cells; experiment: Effect of addition of SB203580 on neurite outgrowth (Experimental Example 7); type: cell-based, human; settings: differentiated 14 days
Procedure: as §3, §2
Subsequently, each of the obtained nerve cells was fixed with 4% paraformaldehyde in 0.1 M PBS, and each of βIII-tubulin which is a nerve cell marker, and the Tau protein which is frequently distributed in axons, was immunostained, and the length of the neurite was measured. […]

[5] = 20 μM SB203580 during Compound 34 treatment (1 μM, 24 hours), vs without SB203580
[6] = 20 μM SB203580 during DAPT treatment (10 μM, 24 hours), vs DAPT without SB203580

Row | SMILES | neurite outgrowth (neurite length), βIII-tubulin immunostaining [1] | neurite outgrowth, Tau protein immunostaining [1] | amount of phosphorylated p38 in the neurosphere (phosphorylated p38) | amount of phosphorylated CDC25B in the neurosphere (phosphorylated CDC25B [2]) | dephosphorylation inhibitory effect on CDC25B (CDC25B) | increase in the amount of phosphorylated CDC25B in the neurosphere (phosphorylated CDC25B [3]; [5]) | increase in the amount of phosphorylated CDC25B in the neurosphere (phosphorylated CDC25B [3]; [6]) | neurite outgrowth (neurite length) [4, 5] | neurite outgrowth (neurite length) [4, 6]
1 | CCCCCCCCCCCCCCCC(=O)C1=C(O)[C@@H](CO)OC1=O [RK-682] | significantly promoted | significantly promoted | significantly increased | significantly increased | does not have a dephosphorylation inhibitory effect | – | – | – | –
2 | C[S+]([O-])c1ccc(-c2nc(-c3ccncc3)c(-c3ccc(F)cc3)[nH]2)cc1 (stereo not drawn) [SB203580] | – | – | – | – | – | significantly suppressed | significantly suppressed | significantly suppressed | significantly suppressed
